Values quoted from earlier work in patent US20040087563A1, “Hormone replacement therapy with cardiovascular protection using antialdosteronic progestins” (priority 2002, published 2004).

What was measured:
[1] = biological target: T1, mineralocorticoid receptor (Homo sapiens, UniProt P08235); settings: compared with spironolactone
T1 sequence (P08235 1-984): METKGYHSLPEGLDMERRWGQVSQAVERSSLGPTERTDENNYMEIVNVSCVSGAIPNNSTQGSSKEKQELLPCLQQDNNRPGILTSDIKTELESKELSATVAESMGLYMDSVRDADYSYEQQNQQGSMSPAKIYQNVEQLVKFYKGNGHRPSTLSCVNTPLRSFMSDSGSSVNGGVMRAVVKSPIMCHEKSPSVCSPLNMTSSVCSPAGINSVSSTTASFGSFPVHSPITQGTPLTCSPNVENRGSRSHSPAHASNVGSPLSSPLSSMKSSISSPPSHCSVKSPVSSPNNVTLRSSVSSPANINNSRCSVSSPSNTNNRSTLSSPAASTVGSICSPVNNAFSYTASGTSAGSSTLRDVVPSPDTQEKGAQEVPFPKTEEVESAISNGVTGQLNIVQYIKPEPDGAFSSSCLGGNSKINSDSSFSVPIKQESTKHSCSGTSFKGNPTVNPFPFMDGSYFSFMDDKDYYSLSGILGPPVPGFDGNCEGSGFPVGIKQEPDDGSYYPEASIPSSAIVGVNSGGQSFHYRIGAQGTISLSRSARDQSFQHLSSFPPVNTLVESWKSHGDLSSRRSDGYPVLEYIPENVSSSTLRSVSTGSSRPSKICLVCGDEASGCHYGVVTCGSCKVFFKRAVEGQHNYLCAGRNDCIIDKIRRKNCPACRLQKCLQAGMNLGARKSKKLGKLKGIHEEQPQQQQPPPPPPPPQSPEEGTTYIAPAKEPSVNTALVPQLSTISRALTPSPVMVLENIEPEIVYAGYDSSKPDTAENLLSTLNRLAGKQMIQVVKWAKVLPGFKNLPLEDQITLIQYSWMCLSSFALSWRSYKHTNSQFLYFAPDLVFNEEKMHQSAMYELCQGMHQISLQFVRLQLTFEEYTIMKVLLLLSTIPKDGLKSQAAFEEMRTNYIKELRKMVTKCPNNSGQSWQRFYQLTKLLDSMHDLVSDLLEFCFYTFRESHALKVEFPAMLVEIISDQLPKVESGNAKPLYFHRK

[2] = tested on: renin-angiotensin-aldosterone system; settings: healthy female volunteers
[3] = patients with severe heart failure already receiving ACE inhibitor therapy

Row | SMILES | potency relative to spironolactone (antimineralocorticoid activity) [1] | plasma aldosterone levels [2] | morbidity and mortality [3]
1 | C[C@]12CCC(=O)C=C1[C@@H]1C[C@@H]1[C@H]1[C@@H]3[C@@H]4C[C@@H]4[C@@]4(CCC(=O)O4)[C@@]3(C)CC[C@@H]12 [Drospirenone, 6β,7β;15β;16β-dimethylene-3-oxo-17α-preg-4-ene-21, 17-carbolactone] | about 8 times | increased | –
2 | CC(=O)S[C@@H]1CC2=CC(=O)CC[C@]2(C)[C@H]2CC[C@@]3(C)[C@@H](CC[C@@]34CCC(=O)O4)[C@H]12 [Spironolactone, 17-hydroxy-7-alpha-mercapto-3-oxo-17-alpha-pregn-4-ene-21-carboxylic acid gamma-lactone acetate] | – | – | decrease the morbidity and mortality
